Measurements published in the CheMixHub viscosity set.

Assay: xn = mol fraction of the nth substance listed

CCOC(C)=O + CN1CCCC1=O
viscosity [mPa·s], 101 kPa
Conditions	x2 = 0.1022	x2 = 0.2038	x2 = 0.305	x2 = 0.4057	x2 = 0.506	x2 = 0.6057	x2 = 0.705	x2 = 0.8038	x2 = 0.9021
303.15 K	0.556	0.725	0.879	1.023	1.154	1.271	1.369	1.449	1.511
308.15 K	0.523	0.669	0.804	0.928	1.042	1.147	1.235	1.307	1.365
313.15 K	0.492	0.628	0.753	0.869	0.975	1.07	1.153	1.221	1.274
318.15 K	0.462	0.582	0.695	0.798	0.893	0.976	1.051	1.114	1.165

CCOc1ccccc1 + CN1CCCC1=O
viscosity [mPa·s], 101.33 kPa
Conditions	x1 = 0.041	x1 = 0.122	x1 = 0.201	x1 = 0.273	x1 = 0.37	x1 = 0.504	x1 = 0.628	x1 = 0.709	x1 = 0.822
298 K	1.667	1.648	1.622	1.594	1.551	1.481	1.408	1.36	1.285
303 K	1.541	1.518	1.49	1.461	1.418	1.353	1.286	1.242	1.175
308 K	1.432	1.406	1.377	1.348	1.307	1.244	1.183	1.141	1.08

OCC(O)CO + CN1CCCC1=O
101 kPa
Conditions	viscosity [mPa·s]
298 K, x2 = 0.078	418.4
298 K, x2 = 0.16	269.4
298 K, x2 = 0.338	72.84
298 K, x2 = 0.433	38.94
298 K, x2 = 0.534	20.42
298 K, x2 = 0.641	11.12
298 K, x2 = 0.754	4.23
298 K, x2 = 0.873	2.44
303 K, x2 = 0.078	289.9
303 K, x2 = 0.16	160.5
303 K, x2 = 0.336	55.93
303 K, x2 = 0.432	30.16
303 K, x2 = 0.533	17.83
303 K, x2 = 0.64	9.48
303 K, x2 = 0.753	3.75
303 K, x2 = 0.872	2.26
308 K, x2 = 0.077	211.3
308 K, x2 = 0.159	118.3
308 K, x2 = 0.335	43.4
308 K, x2 = 0.43	25.79
308 K, x2 = 0.531	15.16
308 K, x2 = 0.638	7.7
308 K, x2 = 0.751	3.27
308 K, x2 = 0.872	2.02
313 K, x2 = 0.077	143.4
313 K, x2 = 0.158	87.14
313 K, x2 = 0.334	35.17
313 K, x2 = 0.43	20.73
313 K, x2 = 0.53	10.45
313 K, x2 = 0.637	6.13
313 K, x2 = 0.751	2.91
313 K, x2 = 0.871	1.88
318 K, x2 = 0.077	106.1
318 K, x2 = 0.158	54.08
318 K, x2 = 0.334	25
318 K, x2 = 0.429	16.1
318 K, x2 = 0.53	9.03
318 K, x2 = 0.637	5.17
318 K, x2 = 0.75	2.68
318 K, x2 = 0.871	1.72
323 K, x2 = 0.077	83.45
323 K, x2 = 0.158	50.16
323 K, x2 = 0.334	21.33
323 K, x2 = 0.429	13.43
323 K, x2 = 0.53	7.11
323 K, x2 = 0.637	4.64
323 K, x2 = 0.75	2.46
323 K, x2 = 0.871	1.6

CCOc1ccccc1 + CN(C)C=O
viscosity [mPa·s], 101.33 kPa
Conditions	x1 = 0.031	x1 = 0.091	x1 = 0.153	x1 = 0.223	x1 = 0.304	x1 = 0.463	x1 = 0.556	x1 = 0.642	x1 = 0.8
298 K	0.815	0.839	0.862	0.889	0.919	0.978	1.012	1.042	1.097
303 K	0.769	0.788	0.808	0.831	0.857	0.907	0.936	0.963	1.01
308 K	0.73	0.747	0.763	0.783	0.804	0.847	0.871	0.893	0.933

OCC(O)CO + CN(C)C=O
viscosity [mPa·s], 101 kPa
Conditions	x1 = 0.105	x1 = 0.209	x1 = 0.312	x1 = 0.414	x1 = 0.514	x1 = 0.613	x1 = 0.712	x1 = 0.809	x1 = 0.905
303.15 K	1.5	2.41	4.22	7.36	14.2	19.9	64.6	127.5	258.7
318.15 K	1.24	1.84	2.91	4.77	8.35	–	27.3	50.5	91.1

CCCCCCCCn1cc[n+](C)c1.[Cl-] + CO
298.15 K, 101 kPa
Conditions	viscosity [mPa·s]
x2 = 0.0565	10350
x2 = 0.1686	3456
x2 = 0.3525	534

CCOC(C)=O + CO
viscosity [mPa·s]
Conditions	293.15 K	298.15 K	303.15 K	308.15 K	313.15 K	318.15 K	323.15 K
100 kPa, x2 = 0.4071	0.4216	0.4015	0.384	0.365	0.3527	0.3431	0.3216
100 kPa, x2 = 0.6468	0.4612	0.4319	0.4112	0.3868	0.3681	0.3501	0.3336
100 kPa, x2 = 0.8048	0.499	0.4697	0.4463	0.4182	0.3988	0.3758	0.3564
100 kPa, x2 = 0.9168	0.5454	0.5164	0.4893	0.4559	0.4327	0.4083	0.3858
101 kPa, x1 = 0.065	0.549	–	0.477	–	0.424	–	0.378
101 kPa, x1 = 0.115	0.528	–	0.462	–	0.413	–	0.368
101 kPa, x1 = 0.306	0.475	–	0.422	–	0.377	–	0.342
101 kPa, x1 = 0.321	0.471	–	0.418	–	0.376	–	0.341
101 kPa, x1 = 0.445	–	–	–	–	0.364	–	0.333
101 kPa, x1 = 0.598	0.444	–	0.397	–	0.36	–	0.328
101 kPa, x1 = 0.797	–	–	–	–	0.362	–	0.332

COC(=O)CC(C)=O + CO
viscosity [mPa·s], 101.3 kPa
Conditions	x1 = 0.1017	x1 = 0.1887	x1 = 0.3013	x1 = 0.4048	x1 = 0.5038	x1 = 0.6056	x1 = 0.7015	x1 = 0.8024	x1 = 0.8994
298.15 K	0.599	0.662	0.757	0.858	0.954	1.064	1.163	1.288	1.413
303.15 K	0.563	0.618	0.704	0.793	0.879	0.978	1.066	1.176	1.288
308.15 K	0.525	0.578	0.657	0.737	0.815	0.902	0.984	1.082	1.18
